Patent US20100137449A1, “SUBSTITUTED 1,3-CYCLOPENTADIONE MULTI-TARGET PROTEIN KINASE MODULATORS OF CANCER, ANGIOGENESIS AND THE INFLAMMATORY PATHWAYS ASSOCIATED THEREWITH” (METAPROTEOMICS, LLC, priority 2007, published 2010)

Experiments:
Assay in all cases: KinaseProfiler Assay
Axl(h) = target: T1, Axl(h) (Homo sapiens, UniProt P30530)
T1 sequence (P30530 26-894): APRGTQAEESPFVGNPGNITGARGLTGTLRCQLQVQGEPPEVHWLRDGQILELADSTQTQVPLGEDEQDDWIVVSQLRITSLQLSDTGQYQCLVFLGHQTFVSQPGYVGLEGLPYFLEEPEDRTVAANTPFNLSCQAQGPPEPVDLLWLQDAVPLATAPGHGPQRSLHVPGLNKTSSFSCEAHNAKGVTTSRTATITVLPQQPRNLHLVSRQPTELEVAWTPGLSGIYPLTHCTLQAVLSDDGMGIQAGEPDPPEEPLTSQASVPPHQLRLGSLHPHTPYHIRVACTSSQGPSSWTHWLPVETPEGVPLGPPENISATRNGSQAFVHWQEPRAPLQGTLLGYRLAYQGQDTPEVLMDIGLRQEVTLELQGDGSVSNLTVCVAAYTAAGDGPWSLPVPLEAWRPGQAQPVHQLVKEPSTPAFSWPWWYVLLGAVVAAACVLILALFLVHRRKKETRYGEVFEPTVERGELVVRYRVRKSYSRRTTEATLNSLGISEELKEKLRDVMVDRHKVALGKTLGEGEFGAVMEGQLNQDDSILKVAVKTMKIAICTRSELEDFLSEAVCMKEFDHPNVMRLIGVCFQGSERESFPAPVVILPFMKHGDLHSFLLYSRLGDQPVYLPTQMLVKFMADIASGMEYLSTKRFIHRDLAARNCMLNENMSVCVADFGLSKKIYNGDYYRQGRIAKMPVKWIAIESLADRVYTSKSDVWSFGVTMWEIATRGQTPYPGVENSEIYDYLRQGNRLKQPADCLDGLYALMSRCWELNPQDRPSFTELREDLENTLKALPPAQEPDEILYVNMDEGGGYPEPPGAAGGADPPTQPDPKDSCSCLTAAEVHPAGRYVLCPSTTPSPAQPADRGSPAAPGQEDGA

Blk(m) = Blk(m) (Mus musculus, UniProt P16277)
Chain of Blk(m) (P16277 whole entry): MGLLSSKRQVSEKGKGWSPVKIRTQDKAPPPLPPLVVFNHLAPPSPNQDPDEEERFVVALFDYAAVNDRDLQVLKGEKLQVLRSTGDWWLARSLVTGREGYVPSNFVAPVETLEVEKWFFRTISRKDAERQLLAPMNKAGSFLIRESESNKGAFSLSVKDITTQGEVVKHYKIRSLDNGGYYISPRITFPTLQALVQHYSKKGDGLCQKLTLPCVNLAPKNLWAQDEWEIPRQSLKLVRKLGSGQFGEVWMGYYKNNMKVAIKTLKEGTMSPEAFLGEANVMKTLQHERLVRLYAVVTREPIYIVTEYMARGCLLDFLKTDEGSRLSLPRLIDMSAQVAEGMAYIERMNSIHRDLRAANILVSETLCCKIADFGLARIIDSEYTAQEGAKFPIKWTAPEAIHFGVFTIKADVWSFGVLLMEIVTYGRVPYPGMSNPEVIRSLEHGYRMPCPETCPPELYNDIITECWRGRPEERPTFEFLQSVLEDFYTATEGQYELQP

CDK3/cyclinE(h) = CDK3/cyclinE(h) (Homo sapiens, UniProt Q00526)
Chain of CDK3/cyclinE(h) (Q00526 whole entry): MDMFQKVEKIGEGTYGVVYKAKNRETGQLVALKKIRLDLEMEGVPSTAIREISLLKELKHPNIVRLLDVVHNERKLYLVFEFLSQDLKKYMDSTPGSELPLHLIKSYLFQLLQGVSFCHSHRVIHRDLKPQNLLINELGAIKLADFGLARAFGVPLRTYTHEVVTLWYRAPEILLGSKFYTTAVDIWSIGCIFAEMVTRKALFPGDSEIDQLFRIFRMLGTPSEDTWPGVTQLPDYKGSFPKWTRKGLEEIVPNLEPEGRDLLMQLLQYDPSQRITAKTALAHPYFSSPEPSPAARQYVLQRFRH
Chain of CDK3/cyclinE(h) (P24864 whole entry partner): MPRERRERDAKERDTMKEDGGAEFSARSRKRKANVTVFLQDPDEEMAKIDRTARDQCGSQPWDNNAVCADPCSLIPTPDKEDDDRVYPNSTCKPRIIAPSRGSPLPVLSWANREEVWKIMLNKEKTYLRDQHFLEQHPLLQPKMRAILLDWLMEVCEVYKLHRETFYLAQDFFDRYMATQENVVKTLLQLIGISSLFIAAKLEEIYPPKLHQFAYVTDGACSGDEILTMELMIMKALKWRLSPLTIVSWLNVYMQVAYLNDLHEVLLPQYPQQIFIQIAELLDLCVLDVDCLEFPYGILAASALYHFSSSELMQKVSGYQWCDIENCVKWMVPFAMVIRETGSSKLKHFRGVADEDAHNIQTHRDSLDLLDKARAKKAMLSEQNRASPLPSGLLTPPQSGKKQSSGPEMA

cSRC(h) = cSRC(h) (Homo sapiens, UniProt P12931)
Chain of cSRC(h) (P12931 whole entry): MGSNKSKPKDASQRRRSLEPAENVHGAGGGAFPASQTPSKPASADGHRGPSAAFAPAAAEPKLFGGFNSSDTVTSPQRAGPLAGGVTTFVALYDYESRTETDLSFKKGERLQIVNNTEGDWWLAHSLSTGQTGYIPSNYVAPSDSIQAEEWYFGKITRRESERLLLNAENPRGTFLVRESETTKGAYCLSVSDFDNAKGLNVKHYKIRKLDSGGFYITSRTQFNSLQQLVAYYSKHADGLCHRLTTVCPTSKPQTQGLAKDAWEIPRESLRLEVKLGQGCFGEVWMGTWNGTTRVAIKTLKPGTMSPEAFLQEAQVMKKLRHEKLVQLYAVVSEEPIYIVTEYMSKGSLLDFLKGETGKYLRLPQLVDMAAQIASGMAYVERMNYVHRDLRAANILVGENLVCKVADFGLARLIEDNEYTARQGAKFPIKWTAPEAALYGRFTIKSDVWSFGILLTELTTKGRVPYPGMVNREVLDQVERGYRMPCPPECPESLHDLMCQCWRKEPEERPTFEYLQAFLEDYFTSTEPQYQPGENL

EphA1(h) = target: T2, EphA1(h) (Homo sapiens, UniProt P21709)
T2 sequence (P21709 26-976): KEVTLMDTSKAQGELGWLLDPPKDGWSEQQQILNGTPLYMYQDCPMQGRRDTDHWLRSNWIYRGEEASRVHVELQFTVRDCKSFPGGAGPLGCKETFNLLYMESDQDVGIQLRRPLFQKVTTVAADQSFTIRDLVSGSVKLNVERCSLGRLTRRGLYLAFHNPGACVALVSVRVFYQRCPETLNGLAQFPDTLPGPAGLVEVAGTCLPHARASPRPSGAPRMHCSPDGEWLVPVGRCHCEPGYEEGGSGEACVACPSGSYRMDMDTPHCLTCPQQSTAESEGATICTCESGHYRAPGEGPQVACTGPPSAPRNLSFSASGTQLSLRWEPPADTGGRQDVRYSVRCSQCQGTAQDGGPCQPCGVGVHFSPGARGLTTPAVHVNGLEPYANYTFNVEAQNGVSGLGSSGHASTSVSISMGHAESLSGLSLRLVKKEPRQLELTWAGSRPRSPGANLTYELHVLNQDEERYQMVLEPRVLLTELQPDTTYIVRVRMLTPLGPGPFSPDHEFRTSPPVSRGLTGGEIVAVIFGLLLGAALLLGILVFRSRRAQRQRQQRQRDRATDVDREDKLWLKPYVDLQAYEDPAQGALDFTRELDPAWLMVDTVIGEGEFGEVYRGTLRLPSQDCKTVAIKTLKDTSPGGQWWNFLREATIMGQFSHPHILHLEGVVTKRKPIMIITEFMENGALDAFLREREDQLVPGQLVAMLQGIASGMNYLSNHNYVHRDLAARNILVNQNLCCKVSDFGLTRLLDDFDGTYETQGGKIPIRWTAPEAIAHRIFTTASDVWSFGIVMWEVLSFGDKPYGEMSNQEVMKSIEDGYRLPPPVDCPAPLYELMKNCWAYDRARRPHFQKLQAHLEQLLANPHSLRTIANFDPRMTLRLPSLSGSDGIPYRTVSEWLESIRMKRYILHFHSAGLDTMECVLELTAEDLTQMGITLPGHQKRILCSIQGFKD

Fms(h) = Fms(h) (Homo sapiens, UniProt P07333)
Chain of Fms(h) (P07333 20-972): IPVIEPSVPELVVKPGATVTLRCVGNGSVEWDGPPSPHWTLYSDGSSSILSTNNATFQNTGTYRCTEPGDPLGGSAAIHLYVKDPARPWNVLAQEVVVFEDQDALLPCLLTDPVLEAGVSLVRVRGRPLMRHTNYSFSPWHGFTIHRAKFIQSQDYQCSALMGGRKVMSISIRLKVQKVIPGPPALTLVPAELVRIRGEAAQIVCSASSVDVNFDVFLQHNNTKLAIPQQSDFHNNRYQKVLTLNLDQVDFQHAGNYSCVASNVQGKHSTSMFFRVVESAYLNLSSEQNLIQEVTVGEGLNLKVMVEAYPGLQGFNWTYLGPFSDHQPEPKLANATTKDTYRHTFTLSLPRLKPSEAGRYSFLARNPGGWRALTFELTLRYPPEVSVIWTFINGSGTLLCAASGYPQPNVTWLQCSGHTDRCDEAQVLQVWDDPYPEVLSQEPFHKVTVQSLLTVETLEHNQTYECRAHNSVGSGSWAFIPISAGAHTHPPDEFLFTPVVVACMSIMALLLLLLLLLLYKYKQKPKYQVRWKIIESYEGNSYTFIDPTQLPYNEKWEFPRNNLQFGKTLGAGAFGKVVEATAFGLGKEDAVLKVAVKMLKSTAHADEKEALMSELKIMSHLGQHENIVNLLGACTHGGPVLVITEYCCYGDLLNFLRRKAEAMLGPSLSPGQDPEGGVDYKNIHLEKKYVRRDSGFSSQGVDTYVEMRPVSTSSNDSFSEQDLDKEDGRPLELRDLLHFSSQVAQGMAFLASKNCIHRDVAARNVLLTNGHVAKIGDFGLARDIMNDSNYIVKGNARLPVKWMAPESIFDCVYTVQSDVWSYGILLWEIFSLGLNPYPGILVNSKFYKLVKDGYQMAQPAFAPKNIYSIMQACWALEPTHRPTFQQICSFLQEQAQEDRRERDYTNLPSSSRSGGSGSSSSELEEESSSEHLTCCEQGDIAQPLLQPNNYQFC

PKCδ(h) = PKCδ(h) (Homo sapiens, UniProt Q05655)
Chain of PKCδ(h) (Q05655 whole entry): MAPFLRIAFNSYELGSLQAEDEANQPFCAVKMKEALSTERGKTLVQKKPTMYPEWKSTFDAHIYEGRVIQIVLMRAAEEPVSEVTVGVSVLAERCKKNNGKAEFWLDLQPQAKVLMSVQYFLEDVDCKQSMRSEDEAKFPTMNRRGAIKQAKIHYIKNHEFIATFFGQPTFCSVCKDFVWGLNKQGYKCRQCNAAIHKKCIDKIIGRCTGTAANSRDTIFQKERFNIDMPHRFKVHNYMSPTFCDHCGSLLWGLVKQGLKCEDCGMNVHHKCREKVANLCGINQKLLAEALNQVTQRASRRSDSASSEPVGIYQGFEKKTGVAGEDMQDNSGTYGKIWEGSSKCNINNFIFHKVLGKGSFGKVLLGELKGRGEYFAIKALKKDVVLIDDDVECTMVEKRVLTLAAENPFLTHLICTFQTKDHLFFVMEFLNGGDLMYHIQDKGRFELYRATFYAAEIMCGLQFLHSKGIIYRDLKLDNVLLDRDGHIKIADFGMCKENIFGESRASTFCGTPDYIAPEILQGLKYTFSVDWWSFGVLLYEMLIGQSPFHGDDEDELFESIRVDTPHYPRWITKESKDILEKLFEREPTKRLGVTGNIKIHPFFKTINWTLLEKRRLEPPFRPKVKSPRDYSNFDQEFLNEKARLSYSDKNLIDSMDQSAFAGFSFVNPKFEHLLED

SRPK2(h) = SRPK2(h) (Homo sapiens, UniProt P78362)
Chain of SRPK2(h) (P78362 whole entry): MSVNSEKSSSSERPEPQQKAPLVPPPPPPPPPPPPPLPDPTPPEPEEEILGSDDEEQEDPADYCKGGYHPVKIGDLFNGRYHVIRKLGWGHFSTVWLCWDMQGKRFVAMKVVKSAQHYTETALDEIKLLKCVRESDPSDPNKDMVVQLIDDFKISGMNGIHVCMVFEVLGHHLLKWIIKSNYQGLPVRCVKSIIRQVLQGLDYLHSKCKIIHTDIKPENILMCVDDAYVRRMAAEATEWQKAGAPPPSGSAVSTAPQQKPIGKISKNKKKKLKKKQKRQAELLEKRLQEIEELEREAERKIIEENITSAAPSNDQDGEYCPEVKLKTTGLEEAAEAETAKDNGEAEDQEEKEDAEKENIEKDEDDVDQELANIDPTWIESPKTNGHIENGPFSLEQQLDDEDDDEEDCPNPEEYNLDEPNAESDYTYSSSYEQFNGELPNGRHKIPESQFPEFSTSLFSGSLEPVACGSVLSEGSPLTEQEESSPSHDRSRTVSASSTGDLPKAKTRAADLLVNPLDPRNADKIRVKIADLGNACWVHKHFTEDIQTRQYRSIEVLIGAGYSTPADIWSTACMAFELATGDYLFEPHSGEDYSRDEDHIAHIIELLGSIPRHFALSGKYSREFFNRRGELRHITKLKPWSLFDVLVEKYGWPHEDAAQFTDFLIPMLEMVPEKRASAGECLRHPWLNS

CC(C)CCC(=O)[C@]1(O)C(O)=C(C(=O)C(C)C)C(=O)[C@H]1CCC(C)C [TH2, tetrahydroiso-cohumulone]
kinase inhibition (Axl(h); 1 μg/ml): 106% of control
kinase inhibition (Axl(h); 5 μg/ml): 110% of control
kinase inhibition (Axl(h); 25 μg/ml): 100% of control
kinase inhibition (Axl(h); 50 μg/ml): 86% of control
kinase inhibition (Axl(h); 100 μg/ml): 65% of control
kinase inhibition (Blk(m); 1 μg/ml): 108% of control
kinase inhibition (Blk(m); 5 μg/ml): 115% of control
kinase inhibition (Blk(m); 25 μg/ml): 96% of control
kinase inhibition (Blk(m); 50 μg/ml): 72% of control
kinase inhibition (Blk(m); 100 μg/ml): 53% of control
kinase inhibition (CDK3/cyclinE(h); 1 μg/ml): 102% of control
kinase inhibition (CDK3/cyclinE(h); 5 μg/ml): 104% of control
kinase inhibition (CDK3/cyclinE(h); 25 μg/ml): 120% of control
kinase inhibition (CDK3/cyclinE(h); 50 μg/ml): 103% of control
kinase inhibition (CDK3/cyclinE(h); 100 μg/ml): 84% of control
kinase inhibition (cSRC(h); 1 μg/ml): 114% of control
kinase inhibition (cSRC(h); 5 μg/ml): 114% of control
kinase inhibition (cSRC(h); 25 μg/ml): 108% of control
kinase inhibition (cSRC(h); 50 μg/ml): 101% of control
kinase inhibition (cSRC(h); 100 μg/ml): 87% of control
kinase inhibition (EphA1(h); 1 μg/ml): 117% of control
kinase inhibition (EphA1(h); 5 μg/ml): 116% of control
kinase inhibition (EphA1(h); 25 μg/ml): 108% of control
kinase inhibition (EphA1(h); 50 μg/ml): 99% of control
kinase inhibition (EphA1(h); 100 μg/ml): 85% of control
kinase inhibition (Fms(h); 1 μg/ml): 116% of control
kinase inhibition (Fms(h); 5 μg/ml): 103% of control
kinase inhibition (Fms(h); 25 μg/ml): 121% of control
kinase inhibition (Fms(h); 50 μg/ml): 117% of control
kinase inhibition (Fms(h); 100 μg/ml): 98% of control
kinase inhibition (PKCδ(h); 1 μg/ml): 111% of control
kinase inhibition (PKCδ(h); 5 μg/ml): 110% of control
kinase inhibition (PKCδ(h); 25 μg/ml): 97% of control
kinase inhibition (PKCδ(h); 50 μg/ml): 92% of control
kinase inhibition (PKCδ(h); 100 μg/ml): 80% of control
kinase inhibition (SRPK2(h); 1 μg/ml): 105% of control
kinase inhibition (SRPK2(h); 5 μg/ml): 104% of control
kinase inhibition (SRPK2(h); 25 μg/ml): 99% of control
kinase inhibition (SRPK2(h); 50 μg/ml): 91% of control
kinase inhibition (SRPK2(h); 100 μg/ml): 88% of control
